The text below walks through data of patent publication US20240316050A1 (OXFORD UNIVERSITY INNOVATION LIMITED, priority 2020, published 2024).

Structures are written as SMILES. Entries after “also recorded” stand apart in the source; their conditions may differ. Structures can show the parent of a compound that is named as a salt.

In data set [1] the test system is sEnd.1 murine endothelial cells. Kind of data set: Intracellular BH4 and biopterins by HPLC in sEnd.1 cells. Format: cell-based, mouse. The source says: Umbilical cords were collected at birth and human umbilical vein endothelial cells (HUVECs) were isolated and stored in liquid nitrogen according to standard operating procedures within a research tissue bank (Oxford Cardiovascular Tissue Bioresource; ethical approval 09/[…]/68, 07/[…]/148 and 11/SC/0230). For the purpose of the current study, HUVECs were identified from normotensive pregnancies and pregnancies complicated by preeclampsia, matched for maternal age and gestation. HUVECs and human uterine microvascular endothelial cells (HutMECs; Cat C-12295, Promocell) were cultured in EBM2 (endothelial basal medium) with bullet kit as recommended (Cat CC-3162, Lonza). All cell cultures were maintained in humidified 5% CO2 at 37° C. Primary HUVEC and HutMEC cells, obtained between passages 1-3 were and passages 4-6, respectively, were used for all experiments. sEnd.1 endothelial cells were grown in Dulbecco's modified Eagle's medium (Invitrogen) supplemented with glutamine (2 mmol/liter), penicillin (100 units/ml), and streptomycin (0.1 mg/ml). GCH1-specific, ON-TARGETplus SMARTpool siRNA was purchased from Dharmacon Thermo Scientific. […] The cells were cultured for 72 h, and gene silencing was detected by analysis of GTPCH protein expression by Western blotting using GTPCH-specific antibodies (a gift from S.Gross, Cornell University New York), in cells using standard protocols.

A further data set concerns sEnd.1 cells. The data set is described as follows: Superoxide and ROS production by DHE HPLC in sEnd.1 cells. The settings on record: folic acid 10 μm, 16 h (FIG. 33). Format: cell-based, mouse.
The next data set relates to women with pre-eclampsia. The settings on record: folic acid supplementation, clinical trials; cited from earlier work.
In the next data set the test system is uterine arteries. The data set is described as follows: Wire myography of isolated uterine arteries with inhibitors in the bath. Details: species or system mouse. The source says:
All drugs used were purchased from Sigma Chemical Company.

A short description of data set [2]: Plasma and uterine artery biopterins by HPLC in treated pregnant mice. The settings on record: for systemic oxidation of BH4 to BH2: Gch1 deficient and control mice, oral supplementation.
Procedure: After centrifugation at 13,200 rpm for 10 min at 4° C., supernatant was removed and ice-cold acid precipitation buffer (1 M phosphoric acid, 2 M trichloroacetic acid, 1 mM dithioerythritol) was added. Following centrifugation at 13,200 rpm for 10 min at 4° C., the supernatant was removed and injected onto the HPLC system.
Data set [3] has as its system HUVECs. Kind of data set: Intracellular BH4 and biopterins by HPLC in HUVECs. The data set is classed as cell-based, human. The source says: Umbilical cords were collected at birth and human umbilical vein endothelial cells (HUVECs) were isolated and stored in liquid nitrogen according to standard operating procedures within a research tissue bank (Oxford Cardiovascular Tissue Bioresource; ethical approval 09/[…]/68, 07/[…]/148 and 11/SC/0230). For the purpose of the current study, HUVECs were identified from normotensive pregnancies and pregnancies complicated by preeclampsia, matched for maternal age and gestation. HUVECs and human uterine microvascular endothelial cells (HutMECs; Cat C-12295, Promocell) were cultured in EBM2 (endothelial basal medium) with bullet kit as recommended (Cat CC-3162, Lonza). All cell cultures were maintained in humidified 5% CO2 at 37° C. Primary HUVEC and HutMEC cells, obtained between passages 1-3 were and passages 4-6, respectively, were used for all experiments. sEnd.1 endothelial cells were grown in Dulbecco's modified Eagle's medium (Invitrogen) supplemented with glutamine (2 mmol/liter), penicillin (100 units/ml), and streptomycin (0.1 mg/ml).

Data set [4] has as its target T1, endothelial nitric oxide synthase (eNOS) (Mus musculus, UniProt P70313).
T1 construct: Conversion of 14C arginine to 14C citrulline was used as a measure of endothelial nitric oxide synthase activity (eNOS); endogenous in cells; host or cells: sEnd.1 murine endothelial cell line
The data set is described as follows: eNOS activity (14C arginine to 14C citrulline) in sEnd.1 cells. The settings on record: 5MTHF 10 μm, 16 h (FIG. 34). Format: cell-based.

In a further data set the test system is Gch1^fl/flTie2cre mice. Kind of data set: Systolic blood pressure by tail-cuff plethysmography in pregnant mice. The settings on record: oral 5-MTHF begun at day 10.5 or 16.5.
For data set [5], the target named is T2, endothelial nitric oxide synthase (eNOS) (Homo sapiens, UniProt P29474).
T2 construct: endogenous in cells; host or cells: primary HUVECs (passages 1-3) from normotensive and pre-eclamptic pregnancies
Kind of data set: NO synthesis by eNOS (14C arginine to citrulline conversion) in HUVECs. Format: cell-based. The settings on record: HUVECs from NT and PE pregnancies; sepiapterin 1 μM.
Source text: Umbilical cords were collected at birth and human umbilical vein endothelial cells (HUVECs) were isolated and stored in liquid nitrogen according to standard operating procedures within a research tissue bank (Oxford Cardiovascular Tissue Bioresource; ethical approval 09/H0606/68, 07/H0606/148 and 11/SC/0230). For the purpose of the current study, HUVECs were identified from normotensive pregnancies and pregnancies complicated by preeclampsia, matched for maternal age and gestation. […] All cell cultures were maintained in humidified 5% CO2 at 37° C.
NO synthesis by eNOS was assessed by conversion of ^14C L-arginine to citrulline, in the presence and absence of N-monomethyl-L-arginine (1 mM, Sigma), as described previously^9. Briefly, HUVES were incubated for 4 hours at 37° C. in 200 μl Krebs-HEPES buffer containing ^14C L-arginine (2 μl of 50 μCi/mL). Samples were run on a SCX 300 cation exchange HPLC column (Sigma) with online scintillation detection. Background signals were corrected from samples with ^14C L-arginine alone without cells.

The subject of data set [6] is HUVECs. Kind of data set: Matrigel endothelial tube formation, HUVECs from NT and PE pregnancies. Format: cell-based, human. The settings on record: sepiapterin 1 μM. The source says: Umbilical cords were collected at birth and human umbilical vein endothelial cells (HUVECs) were isolated and stored in liquid nitrogen according to standard operating procedures within a research tissue bank (Oxford Cardiovascular Tissue Bioresource; ethical approval 09/H0606/68, 07/H0606/148 and 11/SC/0230). For the purpose of the current study, HUVECs were identified from normotensive pregnancies and pregnancies complicated by preeclampsia, matched for maternal age and gestation. HUVECs and human uterine microvascular endothelial cells (HutMECs; Cat C-12295, Promocell) were cultured in EBM2 (endothelial basal medium) with bullet kit as recommended (Cat CC-3162, Lonza). All cell cultures were maintained in humidified 5% CO2 at 37° C. […]
To assess tube formation ability of endothelial cells, a 96-well plate was evenly coated with 50 μl of growth factor-reduced Matrigel (BD Biosciences, UK). […] Images were saved as TIFF files, and tube formation analysed using AngioSys 1.0 (TCS Cell Works, UK). […] The total length of lines was quantified in pixels (then converted to micrometers) and total number of branch points was recorded.

The subject of data set [7] is sEND.1 mouse endothelial cell line. Kind of data set: Matrigel endothelial tube formation, sEND.1 cells with Gch1 siRNA. The data set is classed as cell-based. The settings on record: sEND.1 treated with specific Gch1 siRNA; sepiapterin 1 μM. As for the experimental part: (§1) To assess tube formation ability of endothelial cells, a 96-well plate was evenly coated with 50 μl of growth factor-reduced Matrigel (BD Biosciences, UK). Endothelial cells were plated at a density of 1×10^4 cells per well. The plate was incubated at 37° C. for 16 hours before photomicroscopy. Each sample was replicated in triplicate and the image of each well was taken at ×4 magnification using a Nikon Eclipse TE2000-U microscope (Nikon Ltd, London, UK). Images obtained from Matrigel assay were adjusted for mean brightness using acquisition software to control the bright field illumination of the microscope (Simple PCI version 6.6.0.0; Hamamatsu Corporation, Sewickley, PA). Images were saved as TIFF files, and tube formation analysed using AngioSys 1.0 (TCS Cell Works, UK). Image threshold was adjusted based on the intensity values of the monochrome image and each image then skeletonized to reduce to one pixel wide. […] The total length of lines was quantified in pixels (then converted to micrometers) and total number of branch points was recorded.
(§2) GCH1-specific, ON-TARGETplus SMARTpool siRNA was purchased from Dharmacon Thermo Scientific. […] The cells were cultured for 72 h, and gene silencing was detected by analysis of GTPCH protein expression by Western blotting using GTPCH-specific antibodies (a gift from S.Gross, Cornell University New York), in cells using standard protocols.

Data set [8] has as its system human uterine microvascular endothelial cells (HutMECs). Kind of data set: Matrigel endothelial tube formation, HutMECs with GCH1 siRNA. The settings on record: HutMECs treated with GCH1 siRNA; sepiapterin 1 μM. Format: cell-based. How it is done:
as §1, §2

Another data set has as its system people with PKU. The settings on record: most people with PKU; cited from earlier work.

Procedure for Gch1^fl/flTie2cre mice: Female Gch1^fl/flTie2cre mice and their Gch1^fl/fl littermates (thereafter referred to as wild-type) were used for all experiments at 10 to 16 weeks.
Systolic blood pressure and heart rate was determined using a computerized tail-cuff system (Visitech, USA) in conscious mice^6. Experiments were performed between the hours of 8 and 12 am. The animal tails were passed through a cylindrical latex tail-cuff and taped down to reduce movement. Twenty readings were taken per mouse of which the first 5 readings were discarded. The remaining 15 readings were used to calculate the mean systolic blood pressure and heart rate in each mouse.

As to `Nc1nc2ncc(CNc3ccc(C(=O)N[C@@H](CCC(=O)O)C(=O)O)cc3)nc2c(=O)[nH]1` [folic acid], the BH4 levels result in [1] (sEnd.1 cells, folic acid 10 μm, 16 h at 37° C., with or without MTX 1 μm (FIG. 28)) was “no effect”. In addition, the “generation of reactive oxygen species (ROS)” value with sEnd.1 cells is reported as “increased”. The “clinical benefit in pre-eclampsia” value in the data set on women with pre-eclampsia is given as “no benefit”.
Regarding `COc1ccc2c(c1)c(CC(=O)O)c(C)n2C(=O)c1ccc(Cl)cc1` [indomethacin], in the data set with uterine arteries (uterine arteries, pregnant or non-pregnant wild-type and Gch1^fl/flTie2cre mice, indomethacin 10 μM, apamin 50 nM, charybdotoxin 100 nM), the “endothelium-dependent vasodilation to ACh in the presence of inhibitors” value is “minimal effect”.
Consider `C[C@H](O)[C@H](O)[C@H]1CNc2nc(N)[nH]c(=O)c2N1` [BH4, tetrahydrobiopterin], for which, in data set [2], the “systemic oxidation of BH4 to BH2” value is “rapidly oxidised”. Further, the “BH4/BH2+B (total biopterins) ratio” value in [2] (pregnant mice, E18.5, oral BH4 200 mg/kg/day) was “reduction”. Also, the “plasma BH4 levels” value in [2] (pregnant mice, E18.5, oral in chow from 3 days before timed matings, BH4 200 mg/kg/day, 5-MTHF 15 mg/kg/day) is given as “increased”.
Consider `CN1c2c([nH]c(N)nc2=O)NC[C@@H]1CNc1ccc(C(=O)N[C@@H](CCC(=O)O)C(=O)O)cc1` [Arcofolin], for which the BH4 levels entry in the data set with HUVECs [3] (HUVECs from pregnancies with high blood pressure, 5MTHF 10 μm, 16 h at 37° C. (FIG. 36)) was “increases”.
For the molecule `COC(=O)[C@@H](N)CCCNC(=N)N[N+](=O)[O-]` [L-NAME], the “ACh vasorelaxations in the presence of L-NAME” value with uterine arteries (Gch1^fl/flTie2cre uterine arteries, L-NAME 100 μM) is listed as “did not significantly inhibit”. Also, the “vasoconstriction response to U46619 in the presence of L-NAME” value was “unchanged” with uterine arteries (uterine arteries of pregnant Gch1^fl/flTie2cre mice, L-NAME 100 μM) and “increased” with uterine arteries (uterine arteries of pregnant wild-type mice, L-NAME 100 μM). Also, the “activity of endothelial nitric oxide synthase (L-arginine to L-citrulline conversion)” value in data set [4] is reported as “inhibited”.
For the molecule `CN1c2c(nc(N)[nH]c2=O)NC[C@@H]1CNc1ccc(C(=O)N[C@@H](CCC(=O)O)C(=O)O)cc1` [5-MTHF, 5-methyltetrahydrofolate], the “systemic oxidation of BH4 to BH2” value in [2] is given as “prevented”. Also, the “time from initiation of treatment to reduction in blood pressure” value in the data set on Gch1^fl/flTie2cre mice was ≤ 2 days.
On to `C[C@H](O)C(=O)C1=Nc2c(nc(N)[nH]c2=O)NC1` [sepiapterin], for which, in data set [5], the eNOS activity result is reported as “normalized; also recorded: significantly increased”. Besides, the BH4 levels result in the data set with HUVECs [3] (HUVECs from hypertensive/pre-eclamptic pregnancies, sepiapterin 1 μM) is listed as “normalized”; in data set [1] (sEND.1 treated with specific Gch1 siRNA, sepiapterin 1 μM), “increased”. Besides, the “endothelial cell growth and tubule formation” value is reported as “restored; also recorded: rescued” in the data set on HUVECs [6], “fully restored; also recorded: rescued” in data set [7] and “rescued” in data set [8].
On to `C[C@H](O)[C@H](O)[C@H]1CNc2nc(N)[nH]c(=O)c2N1` [sapropterin dihydrochloride], for which the “clinical benefit in PKU” value in the data set with people with PKU was “little or no benefit”.
